Experimental data taken from patent US10278942B2 (PELOTON THERAPEUTICS, INC., priority 2015, dated 2019).
pIC50: −log10 of the molar value. Like-named read-outs stand apart in the source and are kept apart here.

How the values were obtained:
[1] = molecular target: T1, HIF-2α HIS TAG-PASB Domain (Homo sapiens, UniProt Q99814); assay: HIF-2α Scintillation Proximity Assay (SPA); type: binding; details: for pIC50: read-out: Scintillation Proximity Assay IC50; for IC50: Scintillation Proximity Assay IC50 (nM)
T1 construct: 100 nM HIF-2α HIS TAG-PASB Domain
Procedure, shortened: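 IC50 values rest on percent inhibition, where the sample signal is scaled between high and low controls. Wells contain about 100 μL: compound dispensed as 2 μL of DMSO solution, 88 μL protein-probe mix and 10 μL of beads.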

[2] = tested on: 786-O-Hif-Luc cells; assay: Luciferase Assay (HIF responsive elements reporter)
Description: A pool of infected cells were then selected against 2 μg/mL of puromycin (P8833, Sigma) for 10 days followed by limited dilution to select single clones. […] Each concentration was tested in triplicate. After about 24 hours, luciferase activity was determined using ONE-Glo Luciferase Assay Reagent (E6110, Promega) following the manufacturer's recommended procedure. EC50 were calculated using Dotmatics software.

[3] = read-out: Mean Luciferase EC50 (nM), 786-O-Hif-Luc cells
[4] = read-out: Mean Luciferase EC50 (nM)

T1 sequence (Q99814 240-350 limits assumed): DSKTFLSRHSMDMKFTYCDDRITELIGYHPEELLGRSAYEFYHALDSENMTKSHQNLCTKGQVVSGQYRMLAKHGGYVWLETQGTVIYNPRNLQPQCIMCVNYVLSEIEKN

Compound | pIC50 [1] | EC50 [2, 3] [nM] | IC50 [1] [nM] | EC50 [2, 4] [nM]
CS(=O)(=O)c1ccc(OC2CCC2)c2c1[C@H](O)C(F)(F)[C@@H]2F [Compound 753] | > 7.30 | 250 to 1000 |  | 
O[C@H]1c2c(C(F)(F)F)ccc(OCCCF)c2[C@H](F)C1(F)F [Compound 701] | 6.60 to 7.30 | > 1000 |  | 
N#Cc1cc(F)cc(Oc2ccc(S(=O)(=O)CF)c3c2CC[C@H]3O)c1 [Compound 62] | > 7.30 | 50 to 249 |  | 
N#Cc1cc(F)cc(Oc2ccc(S(=O)(=O)CCO)c3c2CC(F)(F)C3O)c1 (centres unmarked) [Compound 250] | < 6.00 | > 1000 |  | 
CCc1ccc(S(=O)(=O)C(F)(F)F)c2c1CC(F)(F)C2O (centres unmarked) [Compound 516] | < 6.00 | > 1000 |  | 
Cc1cc(C#N)cc(Oc2ccc3c(c2C(F)F)[C@@H](O)C(F)(F)S3(=O)=O)c1 [Compound 392] | > 7.30 | 50 to 249 |  | 
CC(=O)c1c(S(=O)(=O)C(F)(F)F)ccc(Oc2cc(F)cc(Cl)c2)c1Br [Compound 104] | 6.00 to 6.60 | > 1000 |  | 
NC1c2cc(Oc3cc(F)cc(Cl)c3)ccc2S(=O)(=O)C1(F)F (centres unmarked) [Compound 358] | 6.60 to 7.30 | > 1000 |  | 
O=S(=O)(c1ccc(Oc2cc(F)cc(F)c2)c2c1C=CC2)C(F)F [Compound 21] | 6.60 to 7.30 | > 1000 |  | 
O=S(=O)(c1ccc(OCC2CC2(F)F)c2c1[C@H](O)C(F)(F)C2)C(F)(F)F (some centres unmarked) [Compound 728] | > 7.30 | < 50 |  | 
NCc1c(S(=O)(=O)C(F)F)ccc(Oc2cc(F)cc(Cl)c2)c1Br [Compound 85] |  | > 1000 | > 1000 | 
N#Cc1cnn(Cc2ccc(S(=O)(=O)C(F)(F)F)c3c2CC(F)(F)[C@H]3O)c1 [Compound 538] | < 6.00 | > 1000 |  | 
O=S1(=O)c2ccc(Oc3ccc(F)c(F)c3)c(C(F)F)c2[C@@H](O)C1(F)F [Compound 436] | > 7.30 | 50 to 249 |  | 
N#Cc1cc(F)cc(-c2ccc(S(=O)(=O)C(F)(F)F)c3c2CC(F)(F)[C@H]3O)c1 [Compound 486, (S)-3-(2,2-difluoro-1-hydroxy-7((trifluoromethyl)sulfonyl)-2,3-dihydro-1H-inden-4-yl)-5-fluorobenzonitrile] | > 7.30 | 50 to 249 |  | 
O=S(=O)(c1ccc(OC2CCC2)c2c1C(O)CC2)C(F)(F)F (centres unmarked) [Compound 601] | 6.00 to 6.60 | > 1000 |  | 
COC(=O)/C=C/c1c(S(=O)(=O)C(F)(F)F)ccc(Oc2cc(F)cc(C#N)c2)c1C [Compound 147] | 6.60 to 7.30 | > 1000 |  | 
N[C@H]1C[C@@H](Oc2ccc(S(=O)(=O)C(F)(F)F)c3c2CC(F)(F)[C@H]3O)C1 [Compound 724] | < 6.00 | > 1000 |  | 
N#Cc1cccc(-c2ccc(S(=O)(=O)C(F)(F)F)c3c2CC(F)(F)[C@H]3O)c1 [Compound 569] | 6.60 to 7.30 | 250 to 1000 |  | 
O=S(=O)(c1ccc(Oc2cc(F)cc(Cl)c2)c(Cl)c1CCl)C(F)F [Compound 46] | 6.00 to 6.60 | > 1000 |  | 
N#Cc1cc(F)cc(Oc2ccc(S(=O)(=O)C(F)(F)F)c3c2[C@@H](N)C[C@H]3O)c1 [Compound 279] | < 6.00 | > 1000 |  | 
N#CN=S(=O)(CF)c1ccc(Oc2cc(F)cc(C#N)c2)c2c1[C@H](O)C(F)(F)C2 (some centres unmarked) [Compound 285] | 6.60 to 7.30 | 50 to 249 |  | 
O=S(=O)(c1ccc(Oc2cc(F)cc(Cl)c2)c(Br)c1)C(F)F [Compound 131] |  | > 1000 | 250 to 1000 | 
CS(=O)(=O)c1ccc(Oc2cc(F)cc(C#N)c2)c(C(F)F)c1C#N [Compound 94] | 6.60 to 7.30 | 250 to 1000 |  | 
CCS(=O)(=O)c1ccc(Oc2cc(F)cc(Cl)c2)c2c1C(O)CC2 (centres unmarked) [Compound 91] | 6.00 to 6.60 | > 1000 |  | 

Compound | pIC50 [1] | EC50 [2, 3] [nM] | IC50 [1] [nM] | EC50 [2, 4] [nM]
Cc1c(S(C)(=O)=O)ccc(Oc2cc(F)cc(Cl)c2)c1C(F)F [Compound 53] | 6.00 to 6.60 | > 1000 |  | 
N#Cc1cc(F)cc(Nc2ccc(S(=O)(=O)C(F)(F)F)c3c2CCC3O)c1 (centres unmarked) [Compound 505] | 6.00 to 6.60 | 250 to 1000 |  | 
N[C@@H]1c2c(ccc(Oc3cc(F)cc(Br)c3)c2Br)S(=O)(=O)C1(F)F [Compound 462] |  | 250 to 1000 |  | 
CS(=O)(=O)c1ccc(Oc2cc(F)cc(C#N)c2)c2c1C(O)C(F)C2 (centres unmarked) [Compound 232] |  |  |  | < 50
N#Cc1cc(F)cc(Oc2ccc(S(N)(=O)=O)c3c2[C@H](F)C(F)(F)[C@H]3O)c1 [Compound 339] |  |  |  | 250 to 1000
CS(=O)(=O)c1ccc(Oc2cc(F)cc(C#N)c2)c2c1[C@H](N)C(F)(F)C2 [Compound 165] |  |  |  | 50 to 249
[2H]C([2H])([2H])S(=O)(=O)c1ccc(Oc2cc(F)cc(C#N)c2)c2c1[C@]([2H])(O)C(F)(F)C2 [Compound 229] |  |  |  | < 50
N#Cc1cc(F)cc(Oc2ccc(S(=O)(=O)C(F)F)c3c2CC(F)(F)[C@H]3O)c1 [Compound 15, 3-[(1S)-7-(difluoromethylsulfonyl)-2,2-difluoro-1-hydroxy-indan-4-yl]oxy-5-fluoro-benzonitrile] |  | < 50 |  | 
CS(=O)(=O)c1ccc(Oc2cc(F)cc(C#N)c2)c2c1[C@H](O)C(F)(F)C2 [Compound 163, (S)-3-((2,2-Difluoro-1-hydroxy-7-(methylsulfonyl)-2,3-dihydro-1H-inden-4-yl)oxy)-5-fluorobenzonitrile] |  |  |  | < 50
CS(=O)(=O)c1ccc(Oc2cc(F)cc(C#N)c2)c2c1[C@H](O)[C@H](F)C2 [Compound 231] |  |  |  | < 50
N#Cc1cc(F)cc(Oc2ccc(S(=O)(=O)C(F)F)c(CO)c2Cl)c1 [Compound 42] |  | 250 to 1000 |  | 
CC(C)Oc1ccc2c(c1C#N)C(C)(O)C(F)(F)S2(=O)=O (centres unmarked) [Compound 456] |  | > 1000 |  | 
Cn1cc(Oc2ccc(S(=O)(=O)C(F)(F)F)c3c2CC(F)(F)[C@H]3O)cn1 [Compound 224] |  | 50 to 249 |  | 
N#Cc1cc(F)cc(Oc2ccc(S(N)(=O)=O)c3c2[C@@H](F)C(F)(F)[C@H]3O)c1 [Compound 338] |  |  |  | < 50
C[C@H]1C[C@@H](O)c2c(S(=O)(=O)C(F)F)ccc(Oc3cc(F)cc(Cl)c3)c21 [Compound 7a] |  |  |  | 250 to 1000
N#Cc1cc(Cl)cc(Oc2ccc(S(=O)(=O)CF)c3c2CC(F)(F)[C@H]3O)c1 [Compound 167] |  |  |  | < 50
NS(=O)(=O)c1ccc(Oc2cc(F)cc(F)c2)c2c1[C@H](O)C(F)(F)C2 [Compound 256] |  |  |  | < 50
CS(=O)(=O)c1ccc(Oc2cc(F)cc(C#N)c2)c2c1[C@H](O)[C@H](F)[C@@H]2F [Compound 289, 3-[(1S,2S,3R)-2,3-difluoro-1-hydroxy-7-methylsulfonyl-indan-4-yl]oxy-5-fluoro-benzonitrile] |  |  |  | < 50
N#Cc1cccc(Oc2ccc(S(=O)(=O)C(F)F)c(CO)c2Cl)c1 [Compound 43] |  | 250 to 1000 |  | 
O=S(=O)(c1ccc(Oc2ccc(F)c3[nH]ncc23)c2c1C(O)C(F)(F)C2)C(F)(F)F (centres unmarked) [Compound 241] |  | 50 to 249 |  | 
CC1(C#N)CC(Oc2ccc(S(C)(=O)=O)c3c2[C@@H](F)C(F)(F)[C@H]3O)C1 (some centres unmarked) [Compound 766] |  | 250 to 1000 |  | 
O=S1(=O)c2ccc(Oc3cc(F)cc(F)c3)c(C(F)F)c2C(O)C1F (centres unmarked) [Compound 369] |  | 50 to 249 |  | 
CS(=O)(=O)c1ccc(Oc2cc(F)cc(C#N)c2)c2c1C(O)C(F)(F)C2 (centres unmarked) [Compound 223] |  |  |  | 50 to 249
CS(=O)(=O)c1ccc(Oc2cc(F)cc(C#N)c2)c2c1[C@H](O)CC2 [Compound 287] |  | 250 to 1000 |  | 
